Reference: the kinase profiling compilation of Christmann-Franck et al. (2016)

Target: AXL (human) (UniProt P30530)
Assay: radiometric filter-binding kinase assay, Kinase HotSpot
Details: compound 0.5 µM; ATP 10 µM

| SMILES | residual activity |
| --- | --- |
| CSc1nc(-c2ccc(F)cc2)c(-c2ccnc(NC(C)c3ccccc3)c2)[nH]1 (configuration not stated) | 109% |
| CCCNC(=O)Nc1ccc(Oc2ncnc3cc(OC)c(OC)cc23)cc1Cl | 101% |
| CC(C)(C)c1nc2c3ccc(F)cc3c3c(=O)[nH]ccc3c2[nH]1 | 81.9% |
| Cc1cc2ncc(-c3ccccc3)nc2cc1C | 100% |
| Nc1n[nH]c2nnc(-c3c(-c4ccccc4)nn4ccccc34)cc12 | 99.1% |

Target: PNCK (human) (UniProt Q6P2M8)
Assay: as above
Details: compound 0.5 µM; ATP 10 µM

Sequence of PNCK (human) (Q6P2M8 whole entry, looked up): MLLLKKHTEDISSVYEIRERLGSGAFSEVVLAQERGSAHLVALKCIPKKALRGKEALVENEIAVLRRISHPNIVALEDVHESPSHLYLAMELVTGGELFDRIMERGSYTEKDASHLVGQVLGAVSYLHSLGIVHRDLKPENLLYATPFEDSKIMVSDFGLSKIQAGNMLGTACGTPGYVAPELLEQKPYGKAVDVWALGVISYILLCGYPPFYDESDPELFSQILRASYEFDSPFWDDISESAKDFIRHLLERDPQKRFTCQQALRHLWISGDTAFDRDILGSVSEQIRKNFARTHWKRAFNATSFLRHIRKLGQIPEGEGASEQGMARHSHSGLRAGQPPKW

| SMILES | residual activity |
| --- | --- |
| CSc1nc(-c2ccc(F)cc2)c(-c2ccnc(NC(C)c3ccccc3)c2)[nH]1 (configuration not stated) | 92.9% |
| CCCNC(=O)Nc1ccc(Oc2ncnc3cc(OC)c(OC)cc23)cc1Cl | 95.4% |
| CC(C)(C)c1nc2c3ccc(F)cc3c3c(=O)[nH]ccc3c2[nH]1 | 112% |
| Cc1cc2ncc(-c3ccccc3)nc2cc1C | 96.3% |
| Nc1n[nH]c2nnc(-c3c(-c4ccccc4)nn4ccccc34)cc12 | 99.6% |

Target: HIPK4 (human) (UniProt Q8NE63)
Assay: as above
Details: compound 0.5 µM; ATP 10 µM

| SMILES | residual activity |
| --- | --- |
| CSc1nc(-c2ccc(F)cc2)c(-c2ccnc(NC(C)c3ccccc3)c2)[nH]1 (configuration not stated) | 95.2% |
| CCCNC(=O)Nc1ccc(Oc2ncnc3cc(OC)c(OC)cc23)cc1Cl | 93.5% |
| CC(C)(C)c1nc2c3ccc(F)cc3c3c(=O)[nH]ccc3c2[nH]1 | 107% |
| Cc1cc2ncc(-c3ccccc3)nc2cc1C | 120% |
| Nc1n[nH]c2nnc(-c3c(-c4ccccc4)nn4ccccc34)cc12 | 105% |

Target: CDC42BPA (human) (UniProt Q5VT25)
Assay: as above
Details: compound 0.5 µM; ATP 10 µM

Sequence of CDC42BPA (human) (Q5VT25 whole entry, looked up): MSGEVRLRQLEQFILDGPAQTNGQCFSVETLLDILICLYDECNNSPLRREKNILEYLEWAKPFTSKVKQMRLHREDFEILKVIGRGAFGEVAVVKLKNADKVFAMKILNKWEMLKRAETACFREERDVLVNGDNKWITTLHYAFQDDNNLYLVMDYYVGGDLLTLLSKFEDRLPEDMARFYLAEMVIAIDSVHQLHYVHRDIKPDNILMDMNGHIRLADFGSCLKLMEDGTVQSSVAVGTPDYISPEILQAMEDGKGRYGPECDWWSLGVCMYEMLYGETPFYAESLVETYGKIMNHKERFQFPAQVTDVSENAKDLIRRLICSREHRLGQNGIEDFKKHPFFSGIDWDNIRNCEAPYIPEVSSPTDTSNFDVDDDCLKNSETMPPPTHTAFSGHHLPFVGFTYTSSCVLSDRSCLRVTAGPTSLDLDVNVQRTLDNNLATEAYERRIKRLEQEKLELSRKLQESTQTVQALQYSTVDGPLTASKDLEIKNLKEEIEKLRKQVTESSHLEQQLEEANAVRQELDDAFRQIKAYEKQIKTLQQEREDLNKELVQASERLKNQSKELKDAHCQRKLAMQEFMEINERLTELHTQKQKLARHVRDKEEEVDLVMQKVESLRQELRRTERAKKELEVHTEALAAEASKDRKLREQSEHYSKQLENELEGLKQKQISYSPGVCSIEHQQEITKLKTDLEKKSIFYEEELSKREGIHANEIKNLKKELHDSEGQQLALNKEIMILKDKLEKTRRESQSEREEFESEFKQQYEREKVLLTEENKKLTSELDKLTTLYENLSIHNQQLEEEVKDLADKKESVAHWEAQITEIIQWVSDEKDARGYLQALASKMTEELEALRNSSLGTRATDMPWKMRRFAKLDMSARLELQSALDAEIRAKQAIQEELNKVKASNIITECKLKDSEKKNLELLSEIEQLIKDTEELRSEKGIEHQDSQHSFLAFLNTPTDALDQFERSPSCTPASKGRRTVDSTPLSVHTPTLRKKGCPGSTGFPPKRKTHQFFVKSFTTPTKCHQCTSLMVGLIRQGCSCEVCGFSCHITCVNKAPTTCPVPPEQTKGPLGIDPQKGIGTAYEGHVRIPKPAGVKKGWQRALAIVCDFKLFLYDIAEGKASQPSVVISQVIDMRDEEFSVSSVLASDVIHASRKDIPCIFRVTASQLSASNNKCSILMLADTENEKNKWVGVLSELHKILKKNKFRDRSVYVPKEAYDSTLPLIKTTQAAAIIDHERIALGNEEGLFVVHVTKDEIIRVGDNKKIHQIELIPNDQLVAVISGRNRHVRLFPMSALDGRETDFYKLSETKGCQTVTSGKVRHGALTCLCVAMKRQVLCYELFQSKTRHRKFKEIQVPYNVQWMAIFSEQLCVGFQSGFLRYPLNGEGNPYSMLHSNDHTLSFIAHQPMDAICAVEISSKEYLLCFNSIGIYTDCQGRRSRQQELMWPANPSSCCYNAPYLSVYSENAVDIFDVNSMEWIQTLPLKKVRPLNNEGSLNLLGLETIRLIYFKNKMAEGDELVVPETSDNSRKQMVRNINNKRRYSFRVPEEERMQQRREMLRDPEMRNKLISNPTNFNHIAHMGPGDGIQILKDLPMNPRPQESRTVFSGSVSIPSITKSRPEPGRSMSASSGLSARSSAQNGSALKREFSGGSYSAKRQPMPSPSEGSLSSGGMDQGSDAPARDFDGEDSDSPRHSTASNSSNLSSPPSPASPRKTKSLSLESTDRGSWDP

| SMILES | residual activity |
| --- | --- |
| CSc1nc(-c2ccc(F)cc2)c(-c2ccnc(NC(C)c3ccccc3)c2)[nH]1 (configuration not stated) | 97.5% |
| CCCNC(=O)Nc1ccc(Oc2ncnc3cc(OC)c(OC)cc23)cc1Cl | 77.8% |
| CC(C)(C)c1nc2c3ccc(F)cc3c3c(=O)[nH]ccc3c2[nH]1 | 95.7% |
| Cc1cc2ncc(-c3ccccc3)nc2cc1C | 81.2% |
| Nc1n[nH]c2nnc(-c3c(-c4ccccc4)nn4ccccc34)cc12 | 89.7% |

Target: CDK4 CCND3 (human) (UniProt P30281+P11802)
Assay: as above
Details: compound 0.5 µM; ATP 10 µM

| SMILES | residual activity |
| --- | --- |
| CSc1nc(-c2ccc(F)cc2)c(-c2ccnc(NC(C)c3ccccc3)c2)[nH]1 (configuration not stated) | 111% |
| CCCNC(=O)Nc1ccc(Oc2ncnc3cc(OC)c(OC)cc23)cc1Cl | 101% |
| CC(C)(C)c1nc2c3ccc(F)cc3c3c(=O)[nH]ccc3c2[nH]1 | 95.2% |
| Cc1cc2ncc(-c3ccccc3)nc2cc1C | 94.6% |
| Nc1n[nH]c2nnc(-c3c(-c4ccccc4)nn4ccccc34)cc12 | 100% |

Target: TYK2 JH1 catalytic (human) (UniProt P29597)
Assay: as above
Details: compound 0.5 µM; ATP 10 µM

| SMILES | residual activity |
| --- | --- |
| CSc1nc(-c2ccc(F)cc2)c(-c2ccnc(NC(C)c3ccccc3)c2)[nH]1 (configuration not stated) | 96.5% |
| CCCNC(=O)Nc1ccc(Oc2ncnc3cc(OC)c(OC)cc23)cc1Cl | 95.2% |
| CC(C)(C)c1nc2c3ccc(F)cc3c3c(=O)[nH]ccc3c2[nH]1 | 1.48% |
| Cc1cc2ncc(-c3ccccc3)nc2cc1C | 97.6% |
| Nc1n[nH]c2nnc(-c3c(-c4ccccc4)nn4ccccc34)cc12 | 104% |

Target: PRKCE (human) (UniProt Q02156)
Assay: as above
Details: compound 0.5 µM; ATP 10 µM

| SMILES | residual activity |
| --- | --- |
| CSc1nc(-c2ccc(F)cc2)c(-c2ccnc(NC(C)c3ccccc3)c2)[nH]1 (configuration not stated) | 87.6% |
| CCCNC(=O)Nc1ccc(Oc2ncnc3cc(OC)c(OC)cc23)cc1Cl | 96.8% |
| CC(C)(C)c1nc2c3ccc(F)cc3c3c(=O)[nH]ccc3c2[nH]1 | 51.4% |
| Cc1cc2ncc(-c3ccccc3)nc2cc1C | 99.6% |
| Nc1n[nH]c2nnc(-c3c(-c4ccccc4)nn4ccccc34)cc12 | 72.7% |

Target: CSNK1D (human) (UniProt P48730)
Assay: as above
Details: compound 0.5 µM; ATP 10 µM

| SMILES | residual activity |
| --- | --- |
| CSc1nc(-c2ccc(F)cc2)c(-c2ccnc(NC(C)c3ccccc3)c2)[nH]1 (configuration not stated) | 41.9% |
| CCCNC(=O)Nc1ccc(Oc2ncnc3cc(OC)c(OC)cc23)cc1Cl | 98.9% |
| CC(C)(C)c1nc2c3ccc(F)cc3c3c(=O)[nH]ccc3c2[nH]1 | 89.1% |
| Cc1cc2ncc(-c3ccccc3)nc2cc1C | 90.7% |
| Nc1n[nH]c2nnc(-c3c(-c4ccccc4)nn4ccccc34)cc12 | 63.2% |

Target: DAPK2 (human) (UniProt Q9UIK4)
Assay: as above
Details: compound 0.5 µM; ATP 10 µM

| SMILES | residual activity |
| --- | --- |
| CSc1nc(-c2ccc(F)cc2)c(-c2ccnc(NC(C)c3ccccc3)c2)[nH]1 (configuration not stated) | 101% |
| CCCNC(=O)Nc1ccc(Oc2ncnc3cc(OC)c(OC)cc23)cc1Cl | 108% |
| CC(C)(C)c1nc2c3ccc(F)cc3c3c(=O)[nH]ccc3c2[nH]1 | 18% |
| Cc1cc2ncc(-c3ccccc3)nc2cc1C | 92.6% |
| Nc1n[nH]c2nnc(-c3c(-c4ccccc4)nn4ccccc34)cc12 | 103% |

Target: FYN (human) (UniProt P06241)
Assay: as above
Details: compound 0.5 µM; ATP 10 µM

| SMILES | residual activity |
| --- | --- |
| CSc1nc(-c2ccc(F)cc2)c(-c2ccnc(NC(C)c3ccccc3)c2)[nH]1 (configuration not stated) | 98.7% |
| CCCNC(=O)Nc1ccc(Oc2ncnc3cc(OC)c(OC)cc23)cc1Cl | 92.7% |
| CC(C)(C)c1nc2c3ccc(F)cc3c3c(=O)[nH]ccc3c2[nH]1 | 52.3% |
| Cc1cc2ncc(-c3ccccc3)nc2cc1C | 99.4% |
| Nc1n[nH]c2nnc(-c3c(-c4ccccc4)nn4ccccc34)cc12 | 95% |

Target: EPHA3 (human) (UniProt P29320)
Assay: as above
Details: compound 0.5 µM; ATP 10 µM

Sequence of EPHA3 (human) (P29320 whole entry, looked up): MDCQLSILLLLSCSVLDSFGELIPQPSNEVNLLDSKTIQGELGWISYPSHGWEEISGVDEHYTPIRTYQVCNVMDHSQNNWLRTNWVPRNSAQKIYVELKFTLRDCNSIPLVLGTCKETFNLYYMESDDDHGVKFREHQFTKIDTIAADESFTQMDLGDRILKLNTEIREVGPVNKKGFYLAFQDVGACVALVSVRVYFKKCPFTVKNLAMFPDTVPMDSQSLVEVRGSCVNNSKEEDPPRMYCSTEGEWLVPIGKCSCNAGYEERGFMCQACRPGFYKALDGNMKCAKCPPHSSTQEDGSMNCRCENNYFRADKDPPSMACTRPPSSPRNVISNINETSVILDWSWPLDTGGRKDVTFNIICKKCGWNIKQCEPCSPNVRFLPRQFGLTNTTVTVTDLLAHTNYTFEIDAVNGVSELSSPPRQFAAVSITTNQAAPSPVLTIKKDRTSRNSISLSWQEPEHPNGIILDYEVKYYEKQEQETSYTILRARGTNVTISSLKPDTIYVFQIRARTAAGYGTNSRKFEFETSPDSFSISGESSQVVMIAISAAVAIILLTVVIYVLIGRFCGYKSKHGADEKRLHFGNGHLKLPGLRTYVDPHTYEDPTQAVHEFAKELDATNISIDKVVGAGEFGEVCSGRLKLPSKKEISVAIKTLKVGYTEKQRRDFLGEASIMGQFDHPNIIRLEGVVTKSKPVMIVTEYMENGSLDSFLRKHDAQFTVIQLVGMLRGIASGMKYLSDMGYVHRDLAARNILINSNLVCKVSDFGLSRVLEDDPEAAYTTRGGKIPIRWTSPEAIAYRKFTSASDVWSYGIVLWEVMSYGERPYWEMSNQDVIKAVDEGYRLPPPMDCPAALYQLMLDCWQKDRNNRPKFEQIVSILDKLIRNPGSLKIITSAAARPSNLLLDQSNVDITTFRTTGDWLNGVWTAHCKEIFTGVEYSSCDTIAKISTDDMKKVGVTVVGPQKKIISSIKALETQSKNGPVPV

| SMILES | residual activity |
| --- | --- |
| CSc1nc(-c2ccc(F)cc2)c(-c2ccnc(NC(C)c3ccccc3)c2)[nH]1 (configuration not stated) | 82.5% |
| CCCNC(=O)Nc1ccc(Oc2ncnc3cc(OC)c(OC)cc23)cc1Cl | 98.5% |
| CC(C)(C)c1nc2c3ccc(F)cc3c3c(=O)[nH]ccc3c2[nH]1 | 89.2% |
| Cc1cc2ncc(-c3ccccc3)nc2cc1C | 109% |
| Nc1n[nH]c2nnc(-c3c(-c4ccccc4)nn4ccccc34)cc12 | 97.8% |

Target: CDK7 CCNH MNAT1 (human) (UniProt P50613+P51948+P51946)
Assay: as above
Details: compound 0.5 µM; ATP 10 µM

| SMILES | residual activity |
| --- | --- |
| CSc1nc(-c2ccc(F)cc2)c(-c2ccnc(NC(C)c3ccccc3)c2)[nH]1 (configuration not stated) | 97.2% |
| CCCNC(=O)Nc1ccc(Oc2ncnc3cc(OC)c(OC)cc23)cc1Cl | 119% |
| CC(C)(C)c1nc2c3ccc(F)cc3c3c(=O)[nH]ccc3c2[nH]1 | 92.8% |
| Cc1cc2ncc(-c3ccccc3)nc2cc1C | 98.5% |
| Nc1n[nH]c2nnc(-c3c(-c4ccccc4)nn4ccccc34)cc12 | 99% |

Target: DYRK2 (human) (UniProt Q92630)
Assay: as above
Details: compound 0.5 µM; ATP 10 µM

| SMILES | residual activity |
| --- | --- |
| CSc1nc(-c2ccc(F)cc2)c(-c2ccnc(NC(C)c3ccccc3)c2)[nH]1 (configuration not stated) | 96.1% |
| CCCNC(=O)Nc1ccc(Oc2ncnc3cc(OC)c(OC)cc23)cc1Cl | 108% |
| CC(C)(C)c1nc2c3ccc(F)cc3c3c(=O)[nH]ccc3c2[nH]1 | 62.5% |
| Cc1cc2ncc(-c3ccccc3)nc2cc1C | 95.9% |
| Nc1n[nH]c2nnc(-c3c(-c4ccccc4)nn4ccccc34)cc12 | 103% |

Target: MAP4K4 (human) (UniProt O95819)
Assay: as above
Details: compound 0.5 µM; ATP 10 µM

| SMILES | residual activity |
| --- | --- |
| CSc1nc(-c2ccc(F)cc2)c(-c2ccnc(NC(C)c3ccccc3)c2)[nH]1 (configuration not stated) | 91.6% |
| CCCNC(=O)Nc1ccc(Oc2ncnc3cc(OC)c(OC)cc23)cc1Cl | 86.4% |
| CC(C)(C)c1nc2c3ccc(F)cc3c3c(=O)[nH]ccc3c2[nH]1 | 38.4% |
| Cc1cc2ncc(-c3ccccc3)nc2cc1C | 85% |
| Nc1n[nH]c2nnc(-c3c(-c4ccccc4)nn4ccccc34)cc12 | 62% |

Target: RPS6KA4 KD2 (human) (UniProt O75676)
Assay: as above
Details: compound 0.5 µM; ATP 10 µM

| SMILES | residual activity |
| --- | --- |
| CSc1nc(-c2ccc(F)cc2)c(-c2ccnc(NC(C)c3ccccc3)c2)[nH]1 (configuration not stated) | 96.5% |
| CCCNC(=O)Nc1ccc(Oc2ncnc3cc(OC)c(OC)cc23)cc1Cl | 98.5% |
| CC(C)(C)c1nc2c3ccc(F)cc3c3c(=O)[nH]ccc3c2[nH]1 | 44.7% |
| Cc1cc2ncc(-c3ccccc3)nc2cc1C | 99.4% |
| Nc1n[nH]c2nnc(-c3c(-c4ccccc4)nn4ccccc34)cc12 | 94.7% |

Target: RPS6KB1 (human) (UniProt P23443)
Assay: as above
Details: compound 0.5 µM; ATP 10 µM

Sequence of RPS6KB1 (human) (P23443 whole entry, looked up): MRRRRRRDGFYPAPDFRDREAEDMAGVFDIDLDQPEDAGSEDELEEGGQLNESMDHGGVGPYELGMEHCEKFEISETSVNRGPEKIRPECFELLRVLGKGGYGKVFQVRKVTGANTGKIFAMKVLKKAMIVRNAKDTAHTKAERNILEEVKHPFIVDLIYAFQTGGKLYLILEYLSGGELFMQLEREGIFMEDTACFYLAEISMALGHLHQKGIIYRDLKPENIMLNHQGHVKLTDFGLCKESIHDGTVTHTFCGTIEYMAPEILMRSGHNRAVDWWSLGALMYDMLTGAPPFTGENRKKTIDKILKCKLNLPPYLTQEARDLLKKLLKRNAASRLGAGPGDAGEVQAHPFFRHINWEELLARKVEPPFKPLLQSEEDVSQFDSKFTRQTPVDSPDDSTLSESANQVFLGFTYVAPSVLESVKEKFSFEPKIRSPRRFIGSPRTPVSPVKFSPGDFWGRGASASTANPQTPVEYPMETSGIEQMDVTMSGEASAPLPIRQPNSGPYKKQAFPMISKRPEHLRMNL

| SMILES | residual activity |
| --- | --- |
| CSc1nc(-c2ccc(F)cc2)c(-c2ccnc(NC(C)c3ccccc3)c2)[nH]1 (configuration not stated) | 91.2% |
| CCCNC(=O)Nc1ccc(Oc2ncnc3cc(OC)c(OC)cc23)cc1Cl | 90.6% |
| CC(C)(C)c1nc2c3ccc(F)cc3c3c(=O)[nH]ccc3c2[nH]1 | 74.1% |
| Cc1cc2ncc(-c3ccccc3)nc2cc1C | 88.2% |
| Nc1n[nH]c2nnc(-c3c(-c4ccccc4)nn4ccccc34)cc12 | 97.7% |

Target: CAMK1D (human) (UniProt Q8IU85)
Assay: as above
Details: compound 0.5 µM; ATP 10 µM

| SMILES | residual activity |
| --- | --- |
| CSc1nc(-c2ccc(F)cc2)c(-c2ccnc(NC(C)c3ccccc3)c2)[nH]1 (configuration not stated) | 91.7% |
| CCCNC(=O)Nc1ccc(Oc2ncnc3cc(OC)c(OC)cc23)cc1Cl | 96.8% |
| CC(C)(C)c1nc2c3ccc(F)cc3c3c(=O)[nH]ccc3c2[nH]1 | 81.6% |
| Cc1cc2ncc(-c3ccccc3)nc2cc1C | 100% |
| Nc1n[nH]c2nnc(-c3c(-c4ccccc4)nn4ccccc34)cc12 | 95.9% |

Target: RPS6KA2 KD1 KD2 (human) (UniProt Q15349)
Assay: as above
Details: compound 0.5 µM; ATP 10 µM

Sequence of RPS6KA2 KD1 KD2 (human) (Q15349 whole entry, looked up): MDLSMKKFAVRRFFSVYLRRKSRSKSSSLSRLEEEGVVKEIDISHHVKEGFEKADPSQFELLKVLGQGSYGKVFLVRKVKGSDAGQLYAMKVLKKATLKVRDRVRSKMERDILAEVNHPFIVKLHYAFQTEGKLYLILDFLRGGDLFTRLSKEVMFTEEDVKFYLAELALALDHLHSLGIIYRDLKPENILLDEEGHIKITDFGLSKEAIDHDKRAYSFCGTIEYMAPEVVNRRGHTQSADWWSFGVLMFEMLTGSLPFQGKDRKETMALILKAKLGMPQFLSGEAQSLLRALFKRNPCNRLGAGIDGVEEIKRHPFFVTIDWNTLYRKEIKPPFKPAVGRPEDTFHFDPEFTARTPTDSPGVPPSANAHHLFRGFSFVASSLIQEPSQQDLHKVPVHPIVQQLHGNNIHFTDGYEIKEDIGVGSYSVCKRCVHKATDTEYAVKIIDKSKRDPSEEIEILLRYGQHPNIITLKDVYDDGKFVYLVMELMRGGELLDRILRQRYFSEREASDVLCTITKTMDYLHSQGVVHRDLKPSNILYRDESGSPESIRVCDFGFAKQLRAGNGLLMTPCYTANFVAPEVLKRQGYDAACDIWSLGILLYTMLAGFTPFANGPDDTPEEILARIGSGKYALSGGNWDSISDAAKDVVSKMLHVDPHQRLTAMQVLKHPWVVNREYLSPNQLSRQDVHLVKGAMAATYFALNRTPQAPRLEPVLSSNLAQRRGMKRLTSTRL

| SMILES | residual activity |
| --- | --- |
| CSc1nc(-c2ccc(F)cc2)c(-c2ccnc(NC(C)c3ccccc3)c2)[nH]1 (configuration not stated) | 94.3% |
| CCCNC(=O)Nc1ccc(Oc2ncnc3cc(OC)c(OC)cc23)cc1Cl | 95.7% |
| CC(C)(C)c1nc2c3ccc(F)cc3c3c(=O)[nH]ccc3c2[nH]1 | 34.6% |
| Cc1cc2ncc(-c3ccccc3)nc2cc1C | 92.5% |
| Nc1n[nH]c2nnc(-c3c(-c4ccccc4)nn4ccccc34)cc12 | 96.5% |

Target: PDGFRA (human) (UniProt P16234)
Assay: as above
Details: compound 0.5 µM; ATP 10 µM

| SMILES | residual activity |
| --- | --- |
| CSc1nc(-c2ccc(F)cc2)c(-c2ccnc(NC(C)c3ccccc3)c2)[nH]1 (configuration not stated) | 102% |
| CCCNC(=O)Nc1ccc(Oc2ncnc3cc(OC)c(OC)cc23)cc1Cl | 92.2% |
| CC(C)(C)c1nc2c3ccc(F)cc3c3c(=O)[nH]ccc3c2[nH]1 | 92.1% |
| Cc1cc2ncc(-c3ccccc3)nc2cc1C | 95.4% |
| Nc1n[nH]c2nnc(-c3c(-c4ccccc4)nn4ccccc34)cc12 | 99.7% |

Target: MYLK2 (human) (UniProt Q9H1R3)
Assay: as above
Details: compound 0.5 µM; ATP 10 µM

Sequence of MYLK2 (human) (Q9H1R3 whole entry, looked up): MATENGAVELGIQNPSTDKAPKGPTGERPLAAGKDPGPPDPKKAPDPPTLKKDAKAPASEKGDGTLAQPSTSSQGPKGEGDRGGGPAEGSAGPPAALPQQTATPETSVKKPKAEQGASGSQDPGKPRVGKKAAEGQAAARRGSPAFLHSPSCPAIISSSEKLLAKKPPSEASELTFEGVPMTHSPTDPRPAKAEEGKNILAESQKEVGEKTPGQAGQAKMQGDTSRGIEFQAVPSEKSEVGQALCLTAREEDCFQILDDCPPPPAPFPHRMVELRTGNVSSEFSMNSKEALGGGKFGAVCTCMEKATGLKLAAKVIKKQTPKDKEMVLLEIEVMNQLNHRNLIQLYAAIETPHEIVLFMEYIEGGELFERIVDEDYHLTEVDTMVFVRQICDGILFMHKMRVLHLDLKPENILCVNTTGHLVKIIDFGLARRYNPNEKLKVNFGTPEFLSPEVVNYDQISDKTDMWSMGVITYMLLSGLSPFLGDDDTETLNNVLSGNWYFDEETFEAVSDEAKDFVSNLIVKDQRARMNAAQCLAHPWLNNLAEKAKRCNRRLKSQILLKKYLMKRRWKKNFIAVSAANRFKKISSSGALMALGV

| SMILES | residual activity |
| --- | --- |
| CSc1nc(-c2ccc(F)cc2)c(-c2ccnc(NC(C)c3ccccc3)c2)[nH]1 (configuration not stated) | 102% |
| CCCNC(=O)Nc1ccc(Oc2ncnc3cc(OC)c(OC)cc23)cc1Cl | 99.9% |
| CC(C)(C)c1nc2c3ccc(F)cc3c3c(=O)[nH]ccc3c2[nH]1 | 67.2% |
| Cc1cc2ncc(-c3ccccc3)nc2cc1C | 99.7% |
| Nc1n[nH]c2nnc(-c3c(-c4ccccc4)nn4ccccc34)cc12 | 101% |

Target: ADRBK1 (human) (UniProt P25098)
Assay: as above
Details: compound 0.5 µM; ATP 10 µM

| SMILES | residual activity |
| --- | --- |
| CSc1nc(-c2ccc(F)cc2)c(-c2ccnc(NC(C)c3ccccc3)c2)[nH]1 (configuration not stated) | 102% |
| CCCNC(=O)Nc1ccc(Oc2ncnc3cc(OC)c(OC)cc23)cc1Cl | 103% |
